Earlier results as cited in patent US20090197966A1, “Use of Hypothermia Inducing Drugs” (priority 2006, published 2009).
Like-named read-outs stand apart in the source and are kept apart here.

Test system: TRPV1 receptor
Details: systemic administration

COc1cc(CNC(=O)CCCC/C=C/C(C)C)ccc1O [capsaicin, 8-methyl-N-vallilyl-6-nonenamide]
hypothermic response (mammals): dramatic hypothermic response
hypothermic response (mice lacking the TRPV1 gene): absent
